Measured values: US20070060480A1, “Heteroaroyl-substituted phenylalanineamides” (priority 2003, published 2007)

Tests used:
Chenopodium album = experiment: greenhouse post-emergence herbicidal test; format: in vivo; conditions: for post-emergence activity against lambsquarters: application rate 1.0 kg/ha
Procedure: (§1) The seeds of the test plants were sown separately for each species. For the post-emergence treatment, the test plants were grown to a plant height of from 3 to 15 cm, depending on the plant habit, and only then treated with the active ingredients which had been suspended or emulsified in water. To this end, the test plants were either sown directly and grown in the same containers, or they were first grown separately as seedlings and transplanted into the test containers a few days prior to treatment. […] (active substance). Depending on the species, the plants were kept at from 10 to 25° C. and 20 to 35° C., respectively. The test period extended over 2 to 4 weeks. During this time, the plants were tended, and their response to the individual treatments was evaluated. Evaluation was carried out using a scale of from 0 to 100. 100 means no emergence of the plants, or complete destruction of at least the aerial parts, and 0 means no damage or normal course of growth. The plants used in the greenhouse experiments belonged to the following species: [table]

Echinocloa crus-galli = experiment: greenhouse post-emergence herbicidal test; format: in vivo; conditions: application rate 1.0 kg/ha
Procedure: as §1

Galium aparine = experiment: greenhouse post-emergence herbicidal test; format: in vivo; conditions: application rate 1.0 kg/ha
Procedure: as §1

Setaria viridis = experiment: greenhouse post-emergence herbicidal test; format: in vivo; conditions: for post-emergence activity against green foxtail: application rate 1.0 kg/ha
Procedure: as §1

Amaranthus retroflexus = experiment: greenhouse post-emergence herbicidal test; format: in vivo; conditions: for post-emergence activity against pig weed: application rate 1.0 kg/ha
Procedure: as §1

Polygonum convolvulus = experiment: greenhouse post-emergence herbicidal test; format: in vivo; conditions: application rate 1.0 kg/ha
Procedure: as §1

SMILES	post-emergence activity against lambsquarters (Chenopodium album)	post-emergence activity against cockspur (Echinocloa crus-galli)	post-emergence activity against cleavers harrif (Galium aparine)	post-emergence activity against green foxtail (Setaria viridis)	post-emergence activity against pig weed (Amaranthus retroflexus)	other results
CNC(=O)C(NC(=O)c1cc(C)oc1C(F)(F)F)C(O)c1ccccc1 (racemic) [Compound 5.14]	very good	very good	very good	very good	–	–
CNC(=O)C(NC(=O)c1cn(C)nc1C(F)(F)F)C(OS(C)(=O)=O)c1ccccc1 (racemic) [Compound 4.22]	–	–	–	–	–	post-emergence action on pig weed (Amaranthus retroflexus; application rate 0.5 kg/ha): very good; post-emergence action on lambsquarters (Chenopodium album; application rate 0.5 kg/ha): very good; post-emergence action on green foxtail (Setaria viridis; application rate 0.5 kg/ha): very good
CNC(=O)C(NC(=O)c1cn(C)nc1C(F)(F)F)C(C)c1ccccc1C (mixture of isomers) [Compound 4.6]	very good	–	–	very good	very good	–
CCC(CC)C(=O)OC(c1ccccc1)C(NC(=O)c1cn(C)nc1C(F)(F)F)C(=O)NC (racemic) [Compound 4.14]	very good	–	–	very good	very good	–
CNC(=O)C(NC(=O)c1cn(C)nc1C(F)(F)F)C(O)c1ccccc1 (racemic) [Compound 4.9, N-(2-Hydroxy-1-methylcarbamoyl-2-phenylethyl)-1-methyl-3-trifluoromethyl-1H-pyrazole-4-carboxamide]	–	–	–	–	–	melting point: 216 °C
CNC(=O)C(NC(=O)c1ccncc1C(F)(F)F)C(O)c1ccccc1 (racemic) [Compound 5.23]	very good	–	very good	very good	very good	–
CNC(=O)C(NC(=O)c1ccsc1C(F)(F)F)C(OC(=O)COC)c1ccccc1 (racemic) [Compound 5.6]	very good	–	–	very good	very good	–
CNC(=O)C(NC(=O)c1cn(C)nc1C(F)(F)F)C(OC(=O)C(C)(C)C)c1ccccc1 (racemic) [Compound 4.15, 2-Methylcarbamoyl-2-[(1-methyl-3-trifluoromethyl-1H-pyrazole-4-carbonyl)amino]-1-phenylethyl 2,2-dimethylpropionate]	–	–	–	–	–	melting point: 158 °C
CNC(=O)C(NC(=O)c1cscc1C(F)(F)F)C(OC(=O)N(C)C)c1ccccc1 (racemic) [Compound 5.8]	very good	very good	very good	very good	–	post-emergence activity against black bindweed (Polygonum convolvulus): very good
CNC(=O)C(NC(=O)c1cc(C)oc1C(F)(F)F)C(OC(=O)N(C)C)c1ccccc1 (racemic) [Compound 5.16]	very good	very good	–	very good	–	post-emergence activity against black bindweed (Polygonum convolvulus): very good
